Source: patent US20090274577A1, “STE[…] TREATMENT WITH REDUCTANT AND OXIDANT” (priority 2008, published 2009)
Like-named read-outs stand apart in the source and are kept apart here.

Experiments:
[1] = system: Bacillus atrophaeus spores; test: Filtering test: spores incubated in test solution, filtered, filter half treated with ozone, colonies counted; format: cell-based; settings: test solution followed by ~350 ppm ozone, 5 or 10 min
Description: Bacterial spores: Stainless steel discs with Bacillus atrophaeus spores (log 6, cat #1-6100ST, Raven Biological Laboratories).
An ozone generator provided ˜350 ppm O3, and a flow rate of ˜25 l/min, using setting No. 1.
Commercially available sterile single filters (pore size 0.45 μm) and an analytical test filter funnel from Nalgene was used (F-2161, Sigma-Aldrich). For suction, a Rietschle Thomas DTF 6 vacuum pump was used, with a flow rate of ˜6 m3/h, providing a vacuum of ˜150 mbar abs.
Filtering test: In filtering test experiments the spore solutions were prepared in a volume of 1 ml and processed. Thereto, after an incubation period of 5 min in the appropriate buffer at 40° C. using a rotary shaker, an aliquot of 250 μl of the suspension was transferred onto a sterile single use filters. The filter was washed two times with 10 ml of sterile water. The filter was retrieved under sterile conditions, and the filter was cut into halves using a sterile scissor. Only one half of the filter was treated with ozone, while the other half was kept as control, i.e. without ozone treatment. Finally, both halves were placed onto a TSA plate and incubated at 30° C. Initially Nutrient Agar plates were used, but later on a switch was made to TSA plates, in order to utilize the more pronounced reddish colour of Bacillus atrophaeus colonies which was facilitating analysis and documentation. […]

[2] = cited from earlier work

Q: What does the source list for `O=[O+][O-]` [ozone]?
A: sterilizing/disinfecting/killing effect (in words) [1]: increased after 10 min compared to 5 min; half-life of ozone in gas ([2]; 20 ° C.): approximately 3 days; half-life of ozone in gas ([2]; 250° C.): 1.5 s
